From patent publication US7045343B2, “Sterilization indicator test packs” (3M Innovative Properties Company, priority 1998, dated 2006)

System: enzyme associated with Bacillus stearothermophilus spores
Assay: Rapid enzyme fluorescence readout of dual rapid readout indicators after prevacuum steam sterilization
Assay type: biochemical
Conditions: 4-pulse prevacuum steam 121° C.
In short: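 Bacillus stearothermophilus ATCC 7953 spores were coated with a sterilant-resistant chemical solution and pipetted onto paper strips at about 1×10^6 spores per strip. Each strip sat in a dual rapid readout indicator beside a crushable inner container of nutrient medium holding 4-methylumbelliferyl-alpha-D-glucoside at pH 7.6. Indicators went through a 4-pulse prevacuum steam cycle at 121° C, were activated, incubated at 60° C, and read for fluorescence on a 3M ATTEST Model 190 Rapid Autoreader.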

[1] = Example 4, 50 mg/ml coating, 7–18 min
[2] = Example 4, 100 mg/ml coating, 7–18 min
[3] = Example 1, 10 mg/ml coating, 7–13 min
[4] = Example 1, 20 mg/ml coating, 7–13 min
[5] = Example 1, 40 mg/ml coating, 7–13 min
[6] = Example 1, 80 mg/ml coating, 7–13 min
[7] = Example 1, 100 mg/ml coating, 7–13 min
[8] = Example 3, 100 mg/ml coating, 7–15 min

Decaglyceryl Decaoleate
FLUORESCENCE - PERCENT POSITIVE 1 HR [1]: 0%
FLUORESCENCE - PERCENT POSITIVE 2 HR [1]: 19.4%
FLUORESCENCE - PERCENT POSITIVE 3 HR [1]: 29.0%
FLUORESCENCE - PERCENT POSITIVE 4 HR [1]: 41.9%
FLUORESCENCE - PERCENT POSITIVE 1 HR [2]: 16.7%
FLUORESCENCE - PERCENT POSITIVE 2 HR [2]: 20%
FLUORESCENCE - PERCENT POSITIVE 3 HR [2]: 30%
FLUORESCENCE - PERCENT POSITIVE 4 HR [2]: 50%

Decaglyceryl Monostearate
accuracy of sterilization indicators compared to indicators made with untreated spores: improved
accuracy of sterilization indicators compared to indicators made with untreated spores (listed as decaglycerol monostearate): improved accuracy
FLUORESCENCE - PERCENT POSITIVE 1 HR [3]: 0%
FLUORESCENCE - PERCENT POSITIVE 2 HR [3]: 41.0%
FLUORESCENCE - PERCENT POSITIVE 3 HR [3]: 74.4%
FLUORESCENCE - PERCENT POSITIVE 4 HR [3]: 82.1%
FLUORESCENCE - PERCENT POSITIVE 5 HR [3]: 87.2%
FLUORESCENCE - PERCENT POSITIVE 6 HR [3]: 89.7%
FLUORESCENCE - PERCENT POSITIVE 1 HR [4]: 0%
FLUORESCENCE - PERCENT POSITIVE 2 HR [4]: 17.6%
FLUORESCENCE - PERCENT POSITIVE 3 HR [4]: 73.5%
FLUORESCENCE - PERCENT POSITIVE 4 HR [4]: 91.2%
FLUORESCENCE - PERCENT POSITIVE 5 HR [4]: 100%
FLUORESCENCE - PERCENT POSITIVE 6 HR [4]: 100%
FLUORESCENCE - PERCENT POSITIVE 1 HR [5]: 0%
FLUORESCENCE - PERCENT POSITIVE 2 HR [5]: 69.5%
FLUORESCENCE - PERCENT POSITIVE 3 HR [5]: 91.5%
FLUORESCENCE - PERCENT POSITIVE 4 HR [5]: 100%
FLUORESCENCE - PERCENT POSITIVE 5 HR [5]: 100%
FLUORESCENCE - PERCENT POSITIVE 6 HR [5]: 100%
FLUORESCENCE - PERCENT POSITIVE 1 HR [6]: 0%
FLUORESCENCE - PERCENT POSITIVE 2 HR [6]: 85.5%
FLUORESCENCE - PERCENT POSITIVE 3 HR [6]: 96.4%
FLUORESCENCE - PERCENT POSITIVE 4 HR [6]: 100%
FLUORESCENCE - PERCENT POSITIVE 5 HR [6]: 100%
FLUORESCENCE - PERCENT POSITIVE 6 HR [6]: 100%
FLUORESCENCE - PERCENT POSITIVE 1 HR [7]: 8.8%
FLUORESCENCE - PERCENT POSITIVE 2 HR [7]: 85.3%
FLUORESCENCE - PERCENT POSITIVE 3 HR [7]: 100%
FLUORESCENCE - PERCENT POSITIVE 4 HR [7]: 100%
FLUORESCENCE - PERCENT POSITIVE 5 HR [7]: 100%
FLUORESCENCE - PERCENT POSITIVE 6 HR [7]: 100%
FLUORESCENCE - PERCENT POSITIVE 1 HR [8]: 0%
FLUORESCENCE - PERCENT POSITIVE 2 HR [8]: 100.0%
FLUORESCENCE - PERCENT POSITIVE 3 HR [8]: 100.0%
FLUORESCENCE - PERCENT POSITIVE 4 HR [8]: 100.0%
FLUORESCENCE - PERCENT POSITIVE 1 HR [1]: 13.8%
FLUORESCENCE - PERCENT POSITIVE 2 HR [1]: 86.2%
FLUORESCENCE - PERCENT POSITIVE 3 HR [1]: 100.0%
FLUORESCENCE - PERCENT POSITIVE 4 HR [1]: 100.0%
